Results as given in patent US11090304B2 (Amgen Inc., priority 2018, dated 2021).
pIC50: −log10 of the molar value.

Columns and labels:
[1] = molecular target: GDP-bound KRAS protein (aa 1-169), containing both G12C and C118A amino acid substitutions (Homo sapiens, UniProt P01116, C118A/G12C); experiment: Coupled nucleotide exchange assay (SOS-mediated, AlphaScreen); type: biochemical; conditions: 5 min compound pre-incubation
[2] = tested on: Phosphorylation of ERK1/2 in MIA PaCa-2 cells; experiment: Phospho-ERK1/2 MSD assay in MIA PaCa-2 cells; type: cell-based; conditions: Homo sapiens, MIA PaCa-2, 2 h, read-out: p-ERK IC50 (2 h; MIA PaCa-2), 2 h compound treatment
Procedure, shortened: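 IC50 comes from a 4-parameter logistic fit of MSD phospho-ERK1/2 signal in lysates. Before lysis, MIA PaCa-2 or A549 cells were exposed to titrated compound for 2 or 4 h at 37 °C, followed by a 10 min 10 ng/mL EGF stimulus.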

Sequence of GDP-bound KRAS protein (aa 1-169), containing both G12C and C118A amino acid substitutions (P01116 1-169 isoform P01116-2 G12C/C118A): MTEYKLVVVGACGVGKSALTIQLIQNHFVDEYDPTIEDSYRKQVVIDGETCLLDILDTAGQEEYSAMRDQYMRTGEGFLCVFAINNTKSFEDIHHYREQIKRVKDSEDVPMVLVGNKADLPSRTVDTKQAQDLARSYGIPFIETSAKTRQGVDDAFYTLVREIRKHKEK

Structure (SMILES)	Coupled exchange IC50 (5 min) [1]	pIC50 [2]	pIC50 ([1]; read-out: Coupled exchange IC50 (5 min))
C=CC(=O)N1CCN(c2nc(=O)n(-c3nccnc3C(C)C)c3nc(-c4c(O)cccc4F)c(Cl)cc23)[C@@H](C)C1 [Example 54-21, 6-chloro-7-(2-fluoro-6-hydroxyphenyl)-4-((2S)-2-methyl-4-(2-propenoyl)-1-piperazinyl)-1-(3-(2-propanyl)-2-pyrazinyl) pyrido[2,3-d]pyrimidin-2(1H)-one]	1.67 | nda μM	5.61	–
C=CC(=O)N1CCN(c2nc(=O)n(-c3ccnn3C(C)C)c3nc(-c4c(O)cccc4F)c(Cl)cc23)[C@@H](C)C1 [Example 54-25, 6-chloro-7-(2-fluoro-6-hydroxy-phenyl)-4-((2S)-2-methyl-4-(2-propenoyl)-1-piperazinyl)-1-(1-(2-propanyl)-1H-pyrazol-5-yl)pyrido[2,3-d]pyrimidin-2(1H)-one]	–	6.66	6.79
C=CC(=O)N1CCN(c2nc(=O)n(-c3ccnn3C3CCC3)c3nc(-c4c(O)cccc4F)c(Cl)cc23)[C@@H](C)C1 [Example 54-28, 6~chloro-1-(1-cyclobutyl-1H-pyrazol-5-yl)-7-(2-fluoro-6-hydroxyphenyl)-4-((2S)-2-methyl-4-(2-propenoyl)-1-piperazinyl) pyrido[2,3-d]pyrimidin-2(1H)-one]	0.19 | nda μM	6.61	–
C=CC(=O)N1CCN(c2nc(=O)n(-c3ccnn3C3CCC3)c3nc(-c4ccccc4F)c(Cl)cc23)[C@@H](C)C1 [Example 54-29, 6-chloro-1-(1-cyclobutyl-1H-pyrazol-5-yl)-7-(2-fluorophenyl)-4-((2S)-2-methyl-4-(2-propenoyl)-1-piperazinyl) pyrido[2,3-d]pyrimidin-2(1H)-one]	0.406 | nda μM	6.14	–
C=CC(=O)N1CCN(c2nc(=O)n(-c3ccccc3Cl)c3nc(-c4c(O)cccc4F)c(Cl)cc23)[C@@H](C)C1 [Example 54-35, 6-chloro-1-(2-chlorophenyl)-7-(2-fluoro-6-hydroxyphenyl)-4-((2S)-2-methyl-4-(2-propenoyl)-1-piperazinyl) pyrido[2,3-d]pyrimidin-2(1H)-one]	0.582 | nda μM	6.42	–
C=CC(=O)N1CCN(c2nc(=O)n(-c3nccnc3CC)c3nc(-c4c(O)cccc4F)c(Cl)cc23)[C@@H](C)C1 [Example 54-37, 6-chloro-1-(3-ethyl-2-pyrazinyl)-7-(2-fluoro-6-hydroxy-phenyl)-4-((2S)-2-methyl-4-(2-propenoyl)-1-piperazinyl) pyrido[2,3-d]pyrimidin-2(1H)-one]	0.304 | nda μM	6.64	–

Continued by rising pIC50 [2], values first:

Coupled exchange IC50 (5 min) [1]	pIC50 [2]	Structure (SMILES)	pIC50 ([1]; read-out: Coupled exchange IC50 (5 min))
0.105 | nda μM	6.66	C=CC(=O)N1CCN(c2nc(=O)n(-c3cncnc3C(C)C)c3nc(-c4c(O)cccc4F)c(Cl)cc23)[C@@H](C)C1 [Example 54-26, 6-chloro-7-(2-fluoro-6-hydroxy-phenyl)-4-((2S)-2-methyl-4-(2-propenoyl)-1-piperazinyl)-1-(4-(2-propanyl)-5-pyrimidinyl) pyrido[2,3-d]pyrimidin-2(1H)-one]	–
0.149 | nda μM	6.80	C=CC(=O)N1CCN(c2nc(=O)n(-c3ccncc3C(C)C)c3nc(-c4c(O)cccc4F)c(Cl)cc23)[C@@H](C)C1 [Example 54-36, 6-chloro-7-(2-fluoro-6-hydroxy-phenyl)-4-((2S)-2-methyl-4-(2-propenoyl)-1-piperazinyl)-1-(3-(2-propanyl)-4-pyridinyl) pyrido[2,3-d]pyrimidin-2(1H)-one]	–
0.325 | nda μM	7.01	C=CC(=O)N1CCN(c2nc(=O)n(-c3ccccc3CC)c3nc(-c4c(O)cccc4F)c(Cl)cc23)[C@@H](C)C1 [Example 54-34, 6-chloro-1-(2-ethylphenyl)-7-(2-fluoro-6-hydroxyphenyl)-4-((2S)-2-methyl-4-(2-propenoyl)-1-piperazinyl) pyrido[2,3-d]pyrimidin-2(1H)-one]	–
